Data reported in publication PMC11345766, “Computational Design of Pore-Forming Peptides with Potent Antimicrobial and Anticancer Activities” (Journal of Medicinal Chemistry, 2024).
Ends that are not written are not given here.

What was measured:
[1] = system: human red blood cells (HRBCs); details: read-out: Hemolysis toxicity (IC50); 1 h incubation
Experimental: To investigate the toxicity for normal human cells, all peptides were first screened against human red blood cells (HRBCs) using a hemolysis assay (Table 2 and Figure S4).
Hemolysis toxicity was tested against HRBCs. Blood samples, collected from the university hospital, were centrifuged twice at 700 × g and once at 1000 × g for 8 min at 4 °C to obtain erythrocyte pellets. Supernatants were always discarded, and pellets were resuspended in PBS (the same as the antimicrobial susceptibility assay). The final RBC suspension was 0.5% (v/v). Dilution series was prepared for concentrations 50 to 0.1 μM in a V-bottom 96-well plate, followed by the addition of RBC suspension. […] After 1 h of incubation at 37 °C, the well plate was centrifuged at 1000 × g for 10 min at 4 °C. The supernatant, collected in a flat-bottom well plate, was measured for OD415 using Tecan Microplate Reader Infinite F500.

E. coli ATCC 11775 = details: E. coli / ATCC 11775 / Prot. d; Prot. d
[2] = AFM imaging of supported lipid bilayers; details: P:L 1:500 (1 μM peptide)
Experimental: The SLBs were composed of POPC:POPG (1:1 mol/mol) lipids, the same composition used in the dye leakage assay. […] The pores were stable for an investigation period of 2 h and were visibly more numerous than those produced by LP1.[29]
Effects of peptides on the SLBs composed of POPC:POPG (1:1 mol/mol) lipids was investigated using AFM. LUVs were prepared in lipid dissolution buffer (50 mM Tris–HCl and 50 mM KCl) following a dye leakage assay protocol without calcein. Vesicles were sonicated for 30 min at 25 °C and extruded through a 50 nm pore size filter to form small unilamellar vesicles (SUVs). Following the vesicle deposition method,[103] SLBs were formed on mica using SUVs in SLB-forming buffer (50 mM Tris–HCl and 300 mM KCl) and 5 mM CaCl2, mounting a total volume of 150 μL on mica. After 1 h incubation at 25 °C, mica was washed 10 times with SLB-forming buffer and subjected to AFM analysis. The investigated P:L ratio was 1:500 (mol/mol). Bruker Dimension Icon AFM (USA) equipped with a PeakForce-HIRS-F-B silicon nitride probe (spring constant 0.12 N/m) was used to capture topographic images. PeakForce Quantitative NanoMechanic hybrid mode was used with 2 kHz frequency and 25 nm amplitude using set point <100 pN. The scan rate was 1 Hz using 512 samples/line. […]

[3] = system: A. baumannii Z13 (GEN, AMI, IMI, MER); details: A. baumannii / Z13 / GEN, AMI, IMI, MER / Prot. c; Prot. c
E. coli (E1098) = details: E1098, 18 h

“H-HHHHLKKILKKLFQFINQLDNQLQDIHHHH-OH [LP40]” showed an IC50 [1] of over 50 µM.
In the case of “KKKKLKKILKKLFQFINQLDNQLQDIKKKK-NH2 [LP18]”, the MIC (E. coli ATCC 11775) is reported as 1.6 µM and the “Membrane defects or pores formed on SLBs” value [2] is reported as “significantly higher number of membrane defects or pores than LP1”.
“KKKKLKKILKKLFQFINQLDNQLQDIKQNK-NH2 [LP1]” gave an MIC [3] of 4 µM and an MIC (E. coli (E1098)) of 1 µM.
